Patent US20240109900A1, “AZABICYCLIC SHP2 INHIBITORS” (IRBM S.P.A., priority 2021, published 2024)
pIC50: −log10 of the molar value.

Experiments:
[1] = tested on: ERK phosphorylation in KYSE-520 cells; assay: Phospho-ERK cellular assay; format: cell-based; conditions: Homo sapiens, KYSE-520, 2 h, KYSE-520 cells, 2 h at 37° C., phospho-ERK1/2 (Thr202/Tyr204) TR-FRET; read-out: PERK IC50
Description: ERK phosphorylation was detected using the “Advanced phospho-ERK1/2 (Thr202/Tyr204)” TR-FRET kit (Cisbio, Cat #64AERPEG/H), following the manufacturer reagents and instructions.
Briefly, 20.000/well KYSE-520 cells (DSMZ ACC 371) were plated in 6 μL RPMI-1640 (Invitrogen) growth medium, into 384 white low-volume high base TC microplates (Greiner). After an overnight incubation, cells were treated with DMSO serial diluted compounds and incubated for 2 h at 37° C. After incubation, 2 μL/well of 4×Lysis Buffer (Cisbio 64KL1FDF), were added and incubated with cells for 30 min on gentle shaking. Finally, lysates were added with 2 μL/well of Eu cryptate (donor) and D2 (acceptor) conjugated antibodies (as provided by the Cisbio kit #64AERPEG/H) diluted 1:100 in Detection Buffer (as provided by the Cisbio kit #64AERPEG/H). Plates were then sealed and incubated at room temperature in the dark. After an overnight incubation, the TR-FRET signal was detected on a suitable reader (Envision, PerkinElmer). The lower the TR-FRET signal the higher the higher the SHP2 inhibition in cells.
The activity of each compound dilution was calculated as percentage between vehicle DMSO treated cells and no cells, 0% inhibition and 100% inhibition respectively. The percentage activity is fitted against the compound dilutions with a four-parameter logistic regression. The inflection point (i.e. the concentration at which half-maximal inhibition is achieved) is the IC50.

[2] = molecular target: SHP-2 enzyme (Met1-Leu525) (Homo sapiens (Human), UniProt Q06124); assay: SHP2 inhibition enzymatic assay; format: biochemical; conditions: 0.5 nM SHP-2 activated by 500 nM IRS1 peptide, 75 μM DiFMUP substrate; read-out: SHP2wt-IC50
Chain of SHP-2 enzyme (Met1-Leu525) (Q06124 1-525): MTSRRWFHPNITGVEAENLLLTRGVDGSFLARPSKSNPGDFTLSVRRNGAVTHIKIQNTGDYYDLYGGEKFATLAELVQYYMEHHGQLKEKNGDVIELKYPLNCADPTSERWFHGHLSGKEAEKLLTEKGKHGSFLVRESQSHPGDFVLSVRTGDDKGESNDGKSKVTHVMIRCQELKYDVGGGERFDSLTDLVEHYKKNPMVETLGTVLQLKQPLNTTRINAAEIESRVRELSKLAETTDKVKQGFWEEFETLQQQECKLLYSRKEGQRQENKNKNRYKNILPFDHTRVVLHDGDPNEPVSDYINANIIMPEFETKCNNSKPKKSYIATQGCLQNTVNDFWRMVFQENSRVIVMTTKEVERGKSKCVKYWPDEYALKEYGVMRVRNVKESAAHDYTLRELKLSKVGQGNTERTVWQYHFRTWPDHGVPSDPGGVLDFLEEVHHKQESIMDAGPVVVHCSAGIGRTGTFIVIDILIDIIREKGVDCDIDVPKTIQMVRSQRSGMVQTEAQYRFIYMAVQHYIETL
Description: The assay was performed as described in YP Chen et al, Nature (535)2016. Assay volume of 20 μL/well was assembled in 384 well black polystyrene low-binding microplates (Greiner), using the following buffer: 60 mM HEPES pH 7.2, 75 mM NaCl, 75 mM KCl, 1 mM EDTA pH 8, 0.05% tween-20, 5 mM DTT. The SHP-2 enzyme (synthetized by Origene, Met1-Leu525, cat #TP750155) was used at a final concentration of 0.5 nM. The enzyme was activated by 500 nM IRS1 peptide (sequence: H2N-LN(pY)IDLDLV(dPEG8)LST(pY)ASINFQK-amide SEQ ID No. 1) and incubated with 75 μM DiFMUP (Sigma) as substrate.
Briefly, DMSO serially diluted testing compounds were transferred to the bottom of the assay plate. SHP2 was then added together with the IRS1 peptide. 30 min post incubation, the DiFMUP substrate was added to the reaction and incubated 30 min at room temperature. Finally 5 μL of 160 μM bpV (Potassium bisperoxo[1,10-phenanthroline]oxovanadate [V], Sigma) were added to stop and quench the reaction. The fluorescence was detected by a microplate reader (Envision, PerkinElmer) according to the DiFMUP excitation and emission wavelength. The lower the fluorescence the higher the SHP2 inhibition. […] The percentage inhibition is fitted against the compound dilutions with a four-parameter logistic regression. The inflection point (i.e. the concentration at which half-maximal inhibition is achieved) is the IC50.

SMILES | pIC50 [1] | pIC50 [2]
Cc1ccc2c(-c3n[nH]c4nc(N5CCC6C(C5)C6(CN)c5cc(C)on5)cnc34)cccc2n1 (stereo not shown) [Example 25, (7-(5-methylisoxazol-3-yl)-3-(3-(2-methylquinolin-5-yl)-1H-pyrazolo[3,4-b]pyrazin-6-yl)-3-azabicyclo[4.1.0]heptan-7-yl)methanamine] | > 6.00 | > 6.30
Cc1cc(C2(CN)C3CCN(c4cnc5c(-c6cccc7nn(C)cc67)n[nH]c5n4)CC32)no1 (stereo not shown) [Example 26, (3-(3-(2-methyl-2H-indazol-4-yl)-1H-pyrazolo[3,4-b]pyrazin-6-yl)-7-(5-methylisoxazol-3-yl)-3-azabicyclo[4.1.0]heptan-7-yl)methanamine] | > 6.00 | > 6.30
Cc1cc(C2(CN)C3CCN(c4cnc5c(-c6ccnc7ccccc67)n[nH]c5n4)CC32)no1 (stereo not shown) [Example 27, (7-(5-methylisoxazol-3-yl)-3-(3-(quinolin-4-yl)-1H-pyrazolo[3,4-b]pyrazin-6-yl)-3-azabicyclo[4.1.0]heptan-7-yl)methanamine] | > 6.00 | > 6.30
COc1ncccc1-c1n[nH]c2nc(N3CCC4C(C3)C4(CN)c3cc(C)on3)cnc12 (stereo not shown) [Example 28, (3-(3-(2-methoxypyridin-3-yl)-1H-pyrazolo[3,4-b]pyrazin-6-yl)-7-(5-methylisoxazol-3-yl)-3-azabicyclo[4.1.0]heptan-7-yl)methanamine] | < 5.30 | > 6.30
Cc1cc(C2(CN)C3CCN(c4cnc5c(-c6ccnc7c6OC[C@@H]6CCCN76)n[nH]c5n4)CC32)no1 (stereo partly drawn) [Example 29, (7-(5-methylisoxazol-3-yl)-3-(3-((S)-6a,7,8,9-tetrahydro-6H-pyrido[3,2-b]pyrrolo[1,2-d][1,4]oxazin-4-yl)-1H-pyrazolo[3,4-b]pyrazin-6-yl)-3-azabicyclo[4.1.0]heptan-7-yl)methanamine] | < 5.30 | 5.52 to 6.30
Cc1cc(C2(CN)C3CCN(c4cnc5c(-c6ccc(F)c7ncccc67)n[nH]c5n4)CC32)no1 (stereo not shown) [Example 30, (3-(3-(8-fluoroquinolin-5-yl)-1H-pyrazolo[3,4-b]pyrazin-6-yl)-7-(5-methylisoxazol-3-yl)-3-azabicyclo[4.1.0]heptan-7-yl)methanamine] | > 6.00 | > 6.30
Cc1cc(C2(CN)C3CCN(c4cnc5c(-c6ccnc(Cl)c6Cl)n[nH]c5n4)CC32)no1 (stereo not shown) [Example 31, (3-(3-(2,3-dichloropyridin-4-yl)-1H-pyrazolo[3,4-b]pyrazin-6-yl)-7-(5-methylisoxazol-3-yl)-3-azabicyclo[4.1.0]heptan-7-yl)methanamine] | > 6.00 | > 6.30
Cc1cc(C2(CN)C3CCN(c4cnc5c(-c6ccc(C#N)c7ncccc67)n[nH]c5n4)CC32)no1 (stereo not shown) [Example 32, 5-(6-(7-(aminomethyl)-7-(5-methylisoxazol-3-yl)-3-azabicyclo[4.1.0]heptan-3-yl)-1H-pyrazolo[3,4-b]pyrazin-3-yl)quinoline-8-carbonitrile] | > 6.00 | > 6.30
Cc1cc(C2(CN)C3CCN(c4cnc5c(-c6ccc(Cl)c7ncccc67)n[nH]c5n4)CC32)no1 (stereo not shown) [Example 33, (3-(3-(8-chloroquinolin-5-yl)-1H-pyrazolo[3,4-b]pyrazin-6-yl)-7-(5-methylisoxazol-3-yl)-3-azabicyclo[4.1.0]heptan-7-yl)methanamine] | > 6.00 | > 6.30
Cc1cc(C2(CN)C3CCN(c4cnc5c(-c6ccc(Cl)c7cnccc67)n[nH]c5n4)CC32)no1 (stereo not shown) [Example 34, (3-(3-(8-chloroisoquinolin-5-yl)-1H-pyrazolo[3,4-b]pyrazin-6-yl)-7-(5-methylisoxazol-3-yl)-3-azabicyclo[4.1.0]heptan-7-yl)methanamine] | > 6.00 | > 6.30
Cc1cc(C2(CN)C3CCN(c4cnc5c(-c6ccnc7cccnc67)n[nH]c5n4)CC32)no1 (stereo not shown) [Example 35, (3-(3-(1,5-naphthyridin-4-yl)-1H-pyrazolo[3,4-b]pyrazin-6-yl)-7-(5-methylisoxazol-3-yl)-3-azabicyclo[4.1.0]heptan-7-yl)methanamine] | 5.30 to 6.00 | 5.52 to 6.30
Cc1cc(C2(CN)C3CCN(c4cnc5c(-c6ccnc(N)c6Cl)n[nH]c5n4)CC32)no1 (stereo not shown) [Example 36, 4-(6-(7-(aminomethyl)-7-(5-methylisoxazol-3-yl)-3-azabicyclo[4.1.0]heptan-3-yl)-1H-pyrazolo[3,4-b]pyrazin-3-yl)-3-chloropyridin-2-amine] | > 6.00 | > 6.30
Cc1cc([C@@]2(CN)[C@@H]3CCN(c4cnc5c(-c6ccc7c(c6)OC(F)(F)O7)n[nH]c5n4)C[C@@H]32)no1 [Example 37, ((1S,6R,7S)-3-(3-(2,2-difluorobenzo[d][1,3]dioxol-5-yl)-1H-pyrazolo[3,4-b]pyrazin-6-yl)-7-(5-methylisoxazol-3-yl)-3-azabicyclo[4.1.0]heptan-7-yl)methanamine] | 5.30 to 6.00 | > 6.30
Cc1cc([C@@]2(CN)[C@@H]3CCN(c4cnc5c(-c6ccnc7ncccc67)n[nH]c5n4)C[C@@H]32)no1 [Example 38, ((1S,6R,7S)-3-(3-(1,8-naphthyridin-4-yl)-1H-pyrazolo[3,4-b]pyrazin-6-yl)-7-(5-methylisoxazol-3-yl)-3-azabicyclo[4.1.0]heptan-7-yl)methanamine] | > 6.00 | > 6.30
Cc1cc([C@@]2(CN)[C@@H]3CCN(c4cnc5c(-c6ccnc7ccc(F)cc67)n[nH]c5n4)C[C@@H]32)no1 [Example 39, ((1S,6R,7S)-3-(3-(6-fluoroquinolin-4-yl)-1H-pyrazolo[3,4-b]pyrazin-6-yl)-7-(5-methylisoxazol-3-yl)-3-azabicyclo[4.1.0]heptan-7-yl)methanamine] | > 6.00 | > 6.30
Cc1cc([C@@]2(CN)[C@@H]3CCN(c4cnc5c(-c6cccc7c6OCCO7)n[nH]c5n4)C[C@@H]32)no1 [Example 40, ((1S,6R,7S)-3-(3-(2,3-dihydrobenzo[b][1,4]dioxin-5-yl)-1H-pyrazolo[3,4-b]pyrazin-6-yl)-7-(5-methylisoxazol-3-yl)-3-azabicyclo[4.1.0]heptan-7-yl)methanamine] | > 6.00 | > 6.30
Cc1cc([C@@]2(CN)[C@@H]3CCN(c4cnc5c(-c6ccnc7cccc(F)c67)n[nH]c5n4)C[C@@H]32)no1 [Example 41, ((1S,6R,7S)-3-(3-(5-fluoroquinolin-4-yl)-1H-pyrazolo[3,4-b]pyrazin-6-yl)-7-(5-methylisoxazol-3-yl)-3-azabicyclo[4.1.0]heptan-7-yl)methanamine] | > 6.00 | > 6.30
Cc1cc([C@@]2(CN)[C@@H]3CCN(c4cnc5c(-c6ccnc7ccc(Cl)cc67)n[nH]c5n4)C[C@@H]32)no1 [Example 42, ((1S,6R,7S)-3-(3-(6-chloroquinolin-4-yl)-1H-pyrazolo[3,4-b]pyrazin-6-yl)-7-(5-methylisoxazol-3-yl)-3-azabicyclo[4.1.0]heptan-7-yl)methanamine] | 5.30 to 6.00 | 5.52 to 6.30
Cc1cc([C@@]2(CN)[C@@H]3CCN(c4cnc5c(-c6ccc(C(F)(F)F)c7ncccc67)n[nH]c5n4)C[C@@H]32)no1 [Example 43, ((1S,6R,7S)-7-(5-methylisoxazol-3-yl)-3-(3-(8-(trifluoromethyl)quinolin-5-yl)-1H-pyrazolo[3,4-b]pyrazin-6-yl)-3-azabicyclo[4.1.0]heptan-7-yl)methanamine] | > 6.00 | > 6.30
Cc1cc([C@@]2(CN)[C@@H]3CCN(c4cnc5c(-c6ccc7nn(C)c(Cl)c7c6Cl)n[nH]c5n4)C[C@@H]32)no1 [Example 44, ((1S,6R,7S)-3-(3-(3,4-dichloro-2-methyl-2H-indazol-5-yl)-1H-pyrazolo[3,4-b]pyrazin-6-yl)-7-(5-methylisoxazol-3-yl)-3-azabicyclo[4.1.0]heptan-7-yl)methanamine] | > 6.00 | > 6.30
